Test results published in publication PMC11507441, “Oilseed Cakes: A Promising Source of Antioxidant, and Anti-Inflammatory Agents—Insights from Lactuca sativa” (International Journal of Molecular Sciences, 2024).
Values after ≈ are worked out from the molar mass of the structure shown. Read-outs that look alike come from different tables or passages of the source.

Columns and labels:
HepG-2 cancer cell line = assay: Cytotoxic activity (MTT assay); assay type: cell-based; details: for IC50: Homo sapiens; for Selectivity Index HepG2: IC50 normal (WI-38)/IC50 cancer
Description: (§1) The HPLC was performed in the Institute for Plant Biology, TU Braunschweig, using a Young Lin quaternary pump, vacuum degasser, column oven (40 °C), diode array detector (YL9160 PDA), and a Midas Spark Holland autosampler. UV spectra (λ max) were measured in the central laboratory of the Faculty of Pharmaceutical Science at Mansoura University using spectroscopic methanol with an ultraviolet-visible spectrophotometer (Shimadzu 1601 PC, version TCC-240A, Kyoto, Japan). The NMR unit of Mansoura University’s Faculty of Pharmacy obtained nuclear magnetic resonance spectra (^1H-NMR, ^13C-NMR, DEPT-Q, APT, HSQC, and HMBC) using a Bruker DRX 600 NMR spectrometer (600 and 150 MHz for ^1H and ^13C-NMR, respectively) and with the Bruker Corporation Avance III 400 spectrometer, which measures ^1H and ^13C-NMR at 400 and 100 MHz, respectively. The types of solvents that are used are CDCl3, CD3OD, and DMSO-d6. For normal phase chromatography, silica gel G 60–230 mesh (Merck, Darmstadt, Germany) was packed using a wet or dry method in the specified solvent. The purchase of Normal Human lung fibroblast (WI-38), hepatic cancer cell lines (HePG-2), and mammary gland (MCF-7) cell lines from ATCC was made possible by the Holding firm for biological goods and vaccines (VACSERA), which is based in Cairo, Egypt.
(§2) Using the MTT test, the inhibitory effects of substances on cell growth were ascertained using the cell lines compared to normal lung fibroblast cells (WI-38). The selectivity index was calculated via the Selectivity index (SI) equation: SI equals IC50 normal/IC50 cancer.

C. albicans = assay: Antimicrobial screening, zone of inhibition; assay type: cell-based; details: for zone of inhibition at 1000 µg/mL: Candida albicans, isolated compounds 1 mg/mL, read-out: C. Albicans Diameter of Inhibition Zone (mm); for C. Albicans %Activity Index: 1 mg/mL
Description: (§3) The procedure was performed according to […] et al.. A comparison of the extract's zone of inhibition to that of a reference antibiotic's activity index was determined using the following equation:Activity index = (the inhibition zone of extract/the inhibition zone of the standard) × 100

E. coli = assay: Antimicrobial screening, zone of inhibition; assay type: cell-based; details: for zone of inhibition at 1000 µg/mL: Escherichia coli, isolated compounds 1 mg/mL, read-out: E. coli Diameter of Inhibition Zone (mm); for E. coli %Activity Index: 1 mg/mL
Description: as §3

S. aureus = assay: Antimicrobial screening, zone of inhibition; assay type: cell-based; details: for zone of inhibition at 1000 µg/mL: Staphylococcus aureus, isolated compounds 1 mg/mL, read-out: S. aureus Diameter of Inhibition Zone (mm); for S. aureus %Activity Index: 1 mg/mL
Description: as §3

P. aeruginosa = assay: Antimicrobial screening, zone of inhibition; assay type: cell-based; details: Table 1; for zone of inhibition at 1000 µg/mL: Pseudomonas aeruginosa, isolated compounds 1 mg/mL, read-out: P. aeruginosa Diameter of Inhibition Zone (mm); for P. aeruginosa %Activity Index: 1 mg/mL, relative to ciprofloxacin
Description: The procedure was performed according to Stylianakis et al.. A comparison of the extract’s zone of inhibition to that of a reference antibiotic’s activity index was determined using the following equation:Activity index = (the inhibition zone of extract/the inhibition zone of the standard) × 100

MCF-7 cancer cell line = assay: Cytotoxic activity (MTT assay); assay type: cell-based; details: for IC50: Homo sapiens; for Selectivity Index MCF-7: IC50 normal (WI-38)/IC50 cancer
Description: as §1, §2

[1] = Cytotoxic activity (MTT assay), normal cells; assay type: cell-based; details: human
Description: as §1, §2

ABTS antioxidant assay = assay type: biochemical; parameters: IC50 in ABTS assay: unit not given beside the values
Description: The experiment was performed in triplicate according to Zaky et al.. The absorbance of control of the resulting green-blue solution (ABTS* radical solution) was recorded at λ max 734 nm.

[2] = HepG2, read-out: In Vitro Cytotoxicity IC50 (µg/mL) HepG-2
[3] = Table 1, relative to clotrimazole
[4] = Table S1, extracts and fractions 1 mg/mL
[5] = Table 1, relative to ciprofloxacin
[6] = MCF7, read-out: In Vitro Cytotoxicity IC50 (µg/mL) MCF-7
[7] = Table S1, relative to ampicillin standard

Row | SMILES | IC50 (HepG-2 cancer cell line; [2]) | zone of inhibition at 1000 µg/mL (C. albicans; Table 1) | C. Albicans %Activity Index (C. albicans; [3]) | zone of inhibition at 1000 µg/mL (E. coli; Table 1) | E. coli %Activity Index (E. coli; [5]) | zone of inhibition at 1000 µg/mL (S. aureus; Table 1) | S. aureus %Activity Index (S. aureus; [5]) | zone of inhibition at 1000 µg/mL (P. aeruginosa) | P. aeruginosa %Activity Index (P. aeruginosa) | Selectivity Index HepG2 (HepG-2 cancer cell line) | Selectivity Index MCF-7 (MCF-7 cancer cell line) | other results
1 | COc1cccc2c1C(=O)c1c(O)c3c(c(O)c1C2=O)C[C@@](O)(C(=O)CO)C[C@@H]3O[C@H]1C[C@H](N)[C@H](O)[C@H](C)O1 [Doxorubicin, doxorubicin, reference compound] | 4.5 ± 0.2 µg/mL (≈ 8.28 µM) | – | – | – | – | – | – | – | – | – | – | –
2 | Clc1ccccc1C(c1ccccc1)(c1ccccc1)n1ccnc1 [Clotrimazole, clotrimazole, reference compound] | – | 26.9 ± 0.1 mm | 100% | – | – | – | – | – | – | – | – | C. Albicans %Activity Index (C. albicans; Table S1, relative to clotrimazole standard): 100%; C. Albicans Diameter of inhibition zone (mm) (C. albicans; [4]): 25.9±0.1 mm
3 | O=c1cc(-c2ccc(O)c(O)c2)oc2cc(O)cc(O)c12 [Compound 2, luteolin] | 19.5 ± 1.3 µg/mL (≈ 68.1 µM) | 10.7 ± 0.15 mm | 40.5% | 9.8 ± 0.2 mm | 37.8% | 17 ± 0.1 mm | 71.7% | 12.9 ± 0.1 mm | 56.6% | 3 | 5.1 | IC50 (MCF-7 cancer cell line; [6]): 11.6 ± 0.9 µg/mL (≈ 40.6 µM); IC50 [1]: 59.3 ± 3.2 µg/mL (≈ 207 µM)
4 | CCC(CC[C@@H](C)C1CCC2C3CC=C4C[C@@H](O[C@@H]5O[C@H](CO)[C@@H](O)[C@H](O)[C@H]5O)CC[C@]4(C)C3CC[C@@]21C)C(C)C (stereo partly drawn) [Compound 5, β-sitosterol 3-O-β-D-glucoside] | – | 4.9 ± 0.1 mm | 18.2% | 5.1 ± 0.1 mm | 19.6% | 10.8 ± 0.2 mm | 49.6% | 7.9 ± 0.1 mm | 34.5% | 0.54 | 0.66 | IC50 (HepG-2 cancer cell line; HepG2, MTT, read-out: In Vitro Cytotoxicity IC50 (µg/mL) HepG-2): 63.6 ± 3.4 µg/mL (≈ 110 µM); IC50 (MCF-7 cancer cell line; MCF7, MTT, read-out: In Vitro Cytotoxicity IC50 (µg/mL) MCF-7): 52.8 ± 2.9 µg/mL (≈ 91.5 µM); IC50 ([1]; WI-38 normal lung fibroblast cells, MTT, normal cells, read-out: In Vitro Cytotoxicity IC50 (µg/mL) WI-38): 34.8 ± 2.1 µg/mL (≈ 60.3 µM)
5 | O=C(O)c1cn(C2CC2)c2cc(N3CCNCC3)c(F)cc2c1=O [Ciprofloxacin, ciprofloxacin, reference compound] | – | – | – | 26 ± 0.3 mm | – | – | – | 22.87 ± 0.15 mm | – | – | – | –
6 | O=C1O[C@H]([C@@H](O)CO)C(O)=C1O [Ascorbic acid] | – | – | – | – | – | – | – | – | – | – | – | IC50 in ABTS assay (ABTS antioxidant assay; fractions of lettuce seedcake extract, unit not given): 29.47 ± 0.17; % inhibition in ABTS assay (ABTS antioxidant assay; seed cakes' methanolic extract at 1 mg/mL): 88.1%
7 | O=c1cc(-c2ccc(O)c(O)c2)oc2cc(O[C@@H]3O[C@H](CO)[C@@H](O)[C@H](O)[C@H]3O)cc(O)c12 [Compound 3, luteolin 7-O-β-D-glucoside] | 24.8 ± 1.9 µg/mL (≈ 55.4 µM) | 9.87 ± 0.15 mm | 36.7% | 8.8 ± 0.15 mm | 33.8% | 14.8 ± 0.15 mm | 61.9% | 11.8 ± 0.25 mm | 51.5% | 2 | 2.8 | IC50 (MCF-7 cancer cell line; [6]): 17.8 ± 1.3 µg/mL (≈ 39.7 µM); IC50 [1]: 49.6 ± 2.7 µg/mL (≈ 111 µM)
8 | CC1(C)S[C@@H]2[C@H](NC(=O)[C@H](N)c3ccccc3)C(=O)N2[C@H]1C(=O)O [Ampicillin, ampicillin, reference compound] | – | – | – | – | – | – | – | – | – | – | – | E. coli %Activity Index (E. coli; [7]): 100%; E. coli Diameter of inhibition zone (mm) (E. coli; [4]): 23.9 ± 0.15 mm; S. aureus %Activity Index (S. aureus; [7]): 100%; S. aureus Diameter of inhibition zone (mm) (S. aureus; [4]): 22.87±0.15 mm
